What all share (assay): relative viability (nuclei count vs DMSO), 5 days (fraction); higher = more cells survive
Compound in the assay “VX-11e + OSI-027”: CC1=CN=C(N=C1C2=CNC(=C2)C(=O)N[C@H](CO)C3=CC(=CC=C3)Cl)NC4=C(C=C(C=C4)F)Cl [VX-11e] + COc1cccc2cc(-c3nc([C@H]4CC[C@H](C(=O)O)CC4)n4ncnc(N)c34)[nH]c12 [OSI-027] (partner 0.5 µM)
The gist of the method: (§1)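 Lung cancer cell lines were seeded in 1536-well plates and dosed by pin tool the next day, with either a single drug or a fixed anchor-drug dose combined with five library-drug doses (not always all listed) spaced in √10 steps. Five days later, one step fixed the cells and stained their nuclei (final 0.05% Triton X-100, 1% formaldehyde, 1 ug/ml Hoechst), and nuclei were counted on 4× images. Relative viability is the nuclei count in treated wells divided by the count in vehicle wells, and each value is the median of duplicate plates.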

Compound in the assay “VX-11e + Tozasertib”: CC1=CN=C(N=C1C2=CNC(=C2)C(=O)N[C@H](CO)C3=CC(=CC=C3)Cl)NC4=C(C=C(C=C4)F)Cl [VX-11e] + Cc1cc(Nc2cc(N3CCN(C)CC3)nc(Sc3ccc(NC(=O)C4CC4)cc3)n2)n[nH]1 [Tozasertib] (partner 0.1 µM)
Put shortly: as §1

Compound in the assay “VX-11e + Linsitinib”: CC1=CN=C(N=C1C2=CNC(=C2)C(=O)N[C@H](CO)C3=CC(=CC=C3)Cl)NC4=C(C=C(C=C4)F)Cl [VX-11e] + C[C@]1(O)C[C@@H](c2nc(-c3ccc4ccc(-c5ccccc5)nc4c3)c3c(N)nccn32)C1 [Linsitinib] (partner 1 µM)
The gist of the method: as §1

Compound in the assay “VX-11e + Crizotinib”: CC1=CN=C(N=C1C2=CNC(=C2)C(=O)N[C@H](CO)C3=CC(=CC=C3)Cl)NC4=C(C=C(C=C4)F)Cl [VX-11e] + C[C@@H](Oc1cc(-c2cnn(C3CCNCC3)c2)cnc1N)c1c(Cl)ccc(F)c1Cl [Crizotinib] (partner 1 µM)
Put shortly:
as §1

Take NCI-H1993: the relative viability was 0.556 with VX-11e + OSI-027 (first compound 0.04 µM); 0.538 with VX-11e + OSI-027 (first compound 0.1265 µM); 0.557 in the assay with VX-11e + OSI-027 (first compound 0.4 µM); 0.605 in the assay with VX-11e + OSI-027 (first compound 1.265 µM); 0.677 with VX-11e + OSI-027 (first compound 4 µM); 0.626 with VX-11e + Tozasertib (first compound 0.04 µM). Further, the relative viability in the assay with VX-11e + Tozasertib (first compound 0.1265 µM) was found to be 0.603; in the assay with VX-11e + Tozasertib (first compound 0.4 µM), 0.639; in the assay with VX-11e + Tozasertib (first compound 1.265 µM), 0.562; in the assay with VX-11e + Tozasertib (first compound 4 µM) it was 0.514; in the assay with VX-11e + Linsitinib (first compound 0.1265 µM), 0.757; in the assay with VX-11e + Linsitinib (first compound 1.265 µM) it was 0.769. The relative viability was 0.666 with VX-11e + Linsitinib (first compound 4 µM), 0.804 in the assay with VX-11e + Crizotinib (first compound 0.1265 µM), 0.752 with VX-11e + Crizotinib (first compound 1.265 µM) and 0.647 in the assay with VX-11e + Crizotinib (first compound 4 µM).

Regarding LU99A, the relative viability in the assay with VX-11e + OSI-027 (first compound 0.04 µM) amounted to 0.257; with VX-11e + OSI-027 (first compound 0.1265 µM), 0.324; in the assay with VX-11e + OSI-027 (first compound 0.4 µM) it was 0.249; in the assay with VX-11e + OSI-027 (first compound 1.265 µM) it was 0.286; in the assay with VX-11e + OSI-027 (first compound 4 µM), 0.256; in the assay with VX-11e + Tozasertib (first compound 0.04 µM), 0.25. Further, the relative viability with VX-11e + Tozasertib (first compound 0.1265 µM) turned out to be 0.246; in the assay with VX-11e + Tozasertib (first compound 0.4 µM) it was 0.269; with VX-11e + Tozasertib (first compound 1.265 µM), 0.244; with VX-11e + Tozasertib (first compound 4 µM), 0.22; in the assay with VX-11e + Linsitinib (first compound 0.04 µM), 0.539; in the assay with VX-11e + Linsitinib (first compound 0.1265 µM), 0.456. Further, the relative viability stood at 0.623 with VX-11e + Linsitinib (first compound 0.4 µM); 0.42 with VX-11e + Linsitinib (first compound 1.265 µM); 0.207 with VX-11e + Linsitinib (first compound 4 µM); 0.527 with VX-11e + Crizotinib (first compound 0.04 µM); 0.496 in the assay with VX-11e + Crizotinib (first compound 0.1265 µM); 0.517 with VX-11e + Crizotinib (first compound 0.4 µM). Also, the relative viability with VX-11e + Crizotinib (first compound 1.265 µM) amounted to 0.475; with VX-11e + Crizotinib (first compound 4 µM) it was 0.243.

On to NCI-H322M, for which the relative viability with VX-11e + OSI-027 (first compound 0.04 µM) came to 0.535; with VX-11e + OSI-027 (first compound 0.1265 µM), 0.401; with VX-11e + OSI-027 (first compound 0.4 µM), 0.319; in the assay with VX-11e + OSI-027 (first compound 1.265 µM), 0.417; in the assay with VX-11e + OSI-027 (first compound 4 µM), 0.364; with VX-11e + Tozasertib (first compound 0.04 µM) it was 0.444. In addition, the relative viability with VX-11e + Tozasertib (first compound 0.1265 µM) came out at 0.444; with VX-11e + Tozasertib (first compound 0.4 µM), 0.352; with VX-11e + Tozasertib (first compound 1.265 µM), 0.453; with VX-11e + Tozasertib (first compound 4 µM), 0.343; with VX-11e + Linsitinib (first compound 0.04 µM), 1.01; in the assay with VX-11e + Linsitinib (first compound 0.4 µM), 0.781. In addition, the relative viability with VX-11e + Linsitinib (first compound 1.265 µM) came out at 0.688; with VX-11e + Linsitinib (first compound 4 µM), 0.534; with VX-11e + Crizotinib (first compound 0.04 µM) it was 1.08; with VX-11e + Crizotinib (first compound 0.4 µM) it was 0.942; with VX-11e + Crizotinib (first compound 1.265 µM) it was 0.987; with VX-11e + Crizotinib (first compound 4 µM), 0.699.

NCI-H2347: the relative viability was determined as 0.418 with VX-11e + OSI-027 (first compound 0.04 µM); 0.467 with VX-11e + OSI-027 (first compound 0.1265 µM); 0.337 in the assay with VX-11e + OSI-027 (first compound 0.4 µM); 0.255 in the assay with VX-11e + OSI-027 (first compound 1.265 µM); 0.21 in the assay with VX-11e + OSI-027 (first compound 4 µM); 0.646 in the assay with VX-11e + Tozasertib (first compound 0.04 µM). In addition, the relative viability with VX-11e + Tozasertib (first compound 0.1265 µM) was determined as 0.599; with VX-11e + Tozasertib (first compound 0.4 µM), 0.508; in the assay with VX-11e + Tozasertib (first compound 1.265 µM), 0.449; in the assay with VX-11e + Tozasertib (first compound 4 µM), 0.276; with VX-11e + Linsitinib (first compound 0.04 µM) it was 1.07; with VX-11e + Linsitinib (first compound 0.1265 µM), 0.927. Moreover, the relative viability with VX-11e + Linsitinib (first compound 0.4 µM) stood at 0.798; in the assay with VX-11e + Linsitinib (first compound 1.265 µM) it was 0.7; with VX-11e + Linsitinib (first compound 4 µM), 0.496; with VX-11e + Crizotinib (first compound 0.04 µM), 0.677; with VX-11e + Crizotinib (first compound 0.1265 µM), 0.831; in the assay with VX-11e + Crizotinib (first compound 0.4 µM) it was 0.605. The relative viability is 0.517 with VX-11e + Crizotinib (first compound 1.265 µM) and 0.406 in the assay with VX-11e + Crizotinib (first compound 4 µM).

For the cell line HOP-62, the relative viability with VX-11e + OSI-027 (first compound 0.04 µM) was found to be 0.633; with VX-11e + OSI-027 (first compound 0.1265 µM) it was 0.715; with VX-11e + OSI-027 (first compound 0.4 µM) it was 0.569; with VX-11e + OSI-027 (first compound 1.265 µM), 0.464; in the assay with VX-11e + OSI-027 (first compound 4 µM), 0.372; with VX-11e + Tozasertib (first compound 0.04 µM), 0.344. The relative viability is 0.368 with VX-11e + Tozasertib (first compound 0.1265 µM); 0.402 in the assay with VX-11e + Tozasertib (first compound 0.4 µM); 0.321 in the assay with VX-11e + Tozasertib (first compound 1.265 µM); 0.24 with VX-11e + Tozasertib (first compound 4 µM); 0.903 in the assay with VX-11e + Linsitinib (first compound 0.04 µM); 0.773 in the assay with VX-11e + Linsitinib (first compound 0.1265 µM). Moreover, the relative viability with VX-11e + Linsitinib (first compound 0.4 µM) was 0.973; with VX-11e + Linsitinib (first compound 1.265 µM), 0.831; with VX-11e + Linsitinib (first compound 4 µM), 0.226; in the assay with VX-11e + Crizotinib (first compound 0.04 µM), 0.887; with VX-11e + Crizotinib (first compound 0.1265 µM) it was 0.863; with VX-11e + Crizotinib (first compound 0.4 µM) it was 0.978. Moreover, the relative viability with VX-11e + Crizotinib (first compound 1.265 µM) was found to be 0.76; in the assay with VX-11e + Crizotinib (first compound 4 µM), 0.428.

With NCI-H460, the relative viability worked out at 0.589 with VX-11e + OSI-027 (first compound 0.04 µM); 0.483 with VX-11e + OSI-027 (first compound 0.1265 µM); 0.181 with VX-11e + OSI-027 (first compound 0.4 µM); 0.0819 in the assay with VX-11e + OSI-027 (first compound 1.265 µM); 0.0249 with VX-11e + OSI-027 (first compound 4 µM); 0.678 with VX-11e + Tozasertib (first compound 0.04 µM). The relative viability with VX-11e + Tozasertib (first compound 0.1265 µM) came to 0.268; in the assay with VX-11e + Tozasertib (first compound 0.4 µM), 0.0898; with VX-11e + Tozasertib (first compound 1.265 µM), 0.031; in the assay with VX-11e + Tozasertib (first compound 4 µM), 0.0316; with VX-11e + Linsitinib (first compound 0.04 µM), 1.17; with VX-11e + Linsitinib (first compound 0.1265 µM), 0.849. The relative viability with VX-11e + Linsitinib (first compound 0.4 µM) stood at 0.674; with VX-11e + Linsitinib (first compound 1.265 µM) it was 0.0925; in the assay with VX-11e + Linsitinib (first compound 4 µM) it was 0.017; with VX-11e + Crizotinib (first compound 0.04 µM) it was 1.18; with VX-11e + Crizotinib (first compound 0.1265 µM) it was 0.907; with VX-11e + Crizotinib (first compound 0.4 µM) it was 0.784. Also, the relative viability is 0.56 in the assay with VX-11e + Crizotinib (first compound 1.265 µM) and 0.0797 with VX-11e + Crizotinib (first compound 4 µM).

On to HCC-78, for which the relative viability amounted to 0.364 with VX-11e + OSI-027 (first compound 0.1265 µM); 0.395 with VX-11e + OSI-027 (first compound 0.4 µM); 0.376 with VX-11e + OSI-027 (first compound 1.265 µM); 0.393 in the assay with VX-11e + OSI-027 (first compound 4 µM); 0.538 with VX-11e + Tozasertib (first compound 0.1265 µM); 0.386 with VX-11e + Tozasertib (first compound 0.4 µM). Further, the relative viability is 0.324 with VX-11e + Tozasertib (first compound 1.265 µM); 0.487 with VX-11e + Tozasertib (first compound 4 µM); 0.584 in the assay with VX-11e + Linsitinib (first compound 0.04 µM); 0.5 with VX-11e + Linsitinib (first compound 0.1265 µM); 0.541 with VX-11e + Linsitinib (first compound 0.4 µM); 0.403 with VX-11e + Linsitinib (first compound 1.265 µM). In addition, the relative viability stood at 0.382 with VX-11e + Linsitinib (first compound 4 µM); 0.351 with VX-11e + Crizotinib (first compound 0.04 µM); 0.307 with VX-11e + Crizotinib (first compound 0.1265 µM); 0.353 with VX-11e + Crizotinib (first compound 0.4 µM); 0.285 with VX-11e + Crizotinib (first compound 1.265 µM); 0.285 with VX-11e + Crizotinib (first compound 4 µM).

(Values after the supplement of paper PMC10307832.)
